Values of other authors in patent US7550155B2, “Aqueous pharmaceutical compositions of 2,6-diisopropylphenol (propofol) and their uses” (Transform Pharmaceuticals Inc., priority 2002, dated 2009).

Conditions: 10% aqueous solution of P188

In the case of CC(C)c1cccc(C(C)C)c1O [propofol, 2,6-diisopropylphenol], the “Propofol held in aqueous P188 solution” value is listed as 0.8%.
